According to patent US12319678B2, “Thioridazine derivatives and their use for the treatment of cancer” (UNIVERSITA' DEGLI STUDI DI PADOVA, priority 2019, dated 2025):

Tests used:
SHI-1 cells = assay: Intracellular Ca2+ measurement (Fluo-4 AM) in SHI-1 cells; type: cell-based; conditions: for mechanism of Ca2+ influx: SHI-1, Ca2+-containing or Ca2+-free buffer
Method: (§1) Intracellular Ca^2+ levels were monitored by Fluo-4 AM fluorescence according to the manufacturer's instructions. Briefly, cells were washed in Hanks Balanced Salt Solutions, incubated with Fluo-4 AM 3 μM diluted in the working buffer (0.02% w/v Pluronic and 0.2 mM sulfinpyrazone, both sourced from Sigma-Aldrich-Merck, in 10 mM HEPES-buffered Hanks) for 30′ at RT. After incubation, cells were washed and resuspended in working buffer with CaCl2) 0.2 mg/I for 30′, to allow the de-esterification of Fluo-4 AM. Results were evaluated using the FC500 cytometer, and 2-photon microscope Thorlabs. In both experiments, the mean fluorescence intensity (MFI) was detected at basal condition, and up to 5 minutes after treatment.

NSG mice = assay: Stepping test (akinesia, neuroleptic effects); type: in vivo; conditions: for neuroleptic effects (akinesia, stepping test): i.p., 36.85 μmol/Kg (corresponding to 15 mg/kg of TDZ), 1 h after injection
Method: Twelve NSG mice between 6 and 8 weeks of age were randomized in 4 groups (DMSO, thioridazine (TDZ), compound according to Example 1 (TDZ2) and compound according to Example 2 (TDZ6)), and treated every 2 days with growing doses of drugs, administered ip. […] The successive growing doses were 10 mg/kg, 12 mg/kg and finally 15 mg/kg, and the corresponding molar dose of the analogues. The stepping test was performed as previously described (Blume S R, Cass D K, Tseng K Y. Stepping test in mice: A reliable approach in determining forelimb akinesia in MPTP-induced Parkinsonism. Exp Neurol. 2009; 219:208-11) 1 h after drug injection, documented to be the time with the maximum TDZ serum concentration (Nagel D, Spranger S, Vincendeau M, Grau M, Raffegerst S, Kloo B, et al. Pharmacologic Inhibition of MALT1 Protease by Phenothiazines as a Therapeutic Approach for the Treatment of Aggressive ABC-DLBCL. Cancer Cell. 2012; 22:825-37). Briefly, the stepping test was performed on an open table and each trial was recorded using a digital video camera. The animal was allowed to settle at one edge of the table, then the experimenter would lift up the hind legs by pulling up on the tail, leaving only the forepaws touching the table, for a total distance of 1 m. The number of steps from both forepaws and the time used were computed.

[1] = test system: SHI-1, an AML cell line with the genetic aberrancy t(6;11); assay: Apoptosis assay (Annexin-V/propidium iodide) in t(6;11) SHI-1 cells; type: cell-based; conditions: for cytotoxic activity on t(6;11) AML cells (cell death): SHI-1, 24 h after treatment, compared with TDZ; for apoptotic and dead cells: relative to DMSO
Method: (§2) Apoptosis was evaluated by double staining with Annexin-V/propidium iodide (Roche Biochemicals, Indianapolis, IN) and analyzed using Cytometer F C500 (Beckman Coulter, Brea, CA). Increased apoptosis was calculated and expressed as the percentage of Annexin-V-positive and propidium iodide-positive cells compared to those exposed to DMSO.

[2] = test system: healthy bone marrow (HBM) cells; assay: Apoptosis assay in healthy bone marrow cells; type: cell-based; conditions: 24 and 48 h
Method: as §2

[3] = test system: mice xenografted with HL60 or THP1; assay: Flank injection xenograft, HL60 or THP1; type: in vivo, NSG mice; conditions: 8 mg/kg daily i.p.
Method: (§3) Animal experiments were approved by the animal ethics committee of University of Padova and by Italian Minister of Health n° 512/2019-PR, and were executed in accordance with national guidelines and regulations. For flank injection experiments, six NOD-SCID interleukin-2 receptor gamma null (NSG) mice between 6 and 8 weeks of age were injected subcutaneously with 2×10^6 SHI-1, HL60 or THP-1 cells per flank-injection. Each mouse received two flank-injections. When tumors reached an area of 25 mm^2, mice were randomized in 2 groups (control and TDZ-treated), and daily treated with intraperitoneally (ip) administered TDZ 8 mg/kg. Experimental endpoint is reached when tumors reached an area of 250 mm^2.
(§4) TDZ was also used for further tests and particularly to test if it had same effects on leukemia growth in vivo in NOD/scid IL-2Rgnull (NSG) mice flank-injected with the SHI-1-t(6;11) or non-t(6;11) AML cell lines HL60 and THP-1. Xenografted tumor was allowed to grow up to ˜[…] before starting daily intraperitoneal (i.p.) TDZ administration (at 8 mg/kg concentration, below the previously described tolerated dose (Nagel D, Spranger S, Vincendeau M, Grau M, Raffegerst S, Kloo B, et al. Pharmacologic Inhibition of MALT1 Protease by Phenothiazines as a Therapeutic Approach for the Treatment of Aggressive ABC-DLBCL. Cancer Cell. 2012; 22:825-37)).

[4] = test system: t(6;11)-AML primary cells; assay: Colonies forming assay in t(6;11)-AML primary cells; type: cell-based
Method: (§5) After 24 h of treatment, a total of 5×10^2 ML2, SHI-1, HL60, SKNO-1 or NOMO-1 cells and 3×10^3 primary blasts from patients with t(6;11)—rearranged AML were seeded into 500 μl of MethoCult™ (H4230 and H4534 respectively, Stemcell Technologies, Meda M B, Italy), in 24-well plates and incubated at 37° C. Fourteen days after seeding, an adequate volume of a 1:6 solution of 3-[4,5-dimethylthiazol-2-yl]-2,5-diphenyltetrazolium bromide (MTT, Sigma-Aldrich-Merck) in Hanks' was added to semisolid medium. Images were acquired by optical microscope with camera, and colonies were counted using ImageJ software.

[5] = test system: other AML cell lines harboring other genetic mutations (HL60, NOMO1, SKNO-1); assay: Apoptosis assay in non-t(6;11) AML cell lines; type: cell-based; conditions: 24 and 48 h
Method: as §2

SHI-1 xenografted mice = assay: Flank injection xenograft, SHI-1; type: in vivo, NSG mice; conditions: 8 mg/kg daily i.p., compared with control (p<0.01 and p<0.001)
Method: as §3, §4

t(6;11) primary cells = assay: Intracellular Ca2+ measurement (Fluo-4 AM) in t(6;11) primary cells; type: cell-based; conditions: primary cultures of t(6;11) AML
Method: as §1

[6] = test system: primary cultures from patients with t(6;11) AML; assay: Apoptosis assay in primary t(6;11) AML cultures; type: cell-based; conditions: primary t(6;11) AML compared with non-t(6;11)-AML; 24 and 48 h
Method: as §2

t(6;11) SHI-1 cells [7] = assay: Mitochondrial membrane potential (TMRE); type: cell-based; conditions: 6 and 24 h after treatment, compared with DMSO
Method: Mitochondrial membrane potential was measured by using TMRE Assay Kit (ab113852, Abcam), following manufacturer's instructions Briefly, TMRE 200 nM diluted in BSA 0.2%-PBS1× was added for 20′ at 37° C. Cells were analyzed by flow cytometry using FC500.

t(6;11) SHI-1 cells [8] = assay: Colonies forming assay in t(6;11) SHI-1 cells; type: cell-based; conditions: 24 h pre-treatment, viable cells seeded in drug-free condition
Method: as §5

[9] = test system: non-t(6;11) HL60, NOMO-1, SKNO-1 cells; assay: Colonies forming assay in non-t(6;11) AML cell lines; type: cell-based; conditions: 24 h of treatment, other AML cell lines
Method: as §5

t(6;11) SHI-1 cells [10] = assay: Reactive oxygen species (CellROX) by flow cytometry; type: cell-based; conditions: 6, 16 and 24 h after treatment, compared with DMSO
Method: ROS production was monitored by flow cytometry using CellROX Deep Red Reagent (C10422, Invitrogen) following manufacturer's instructions. Briefly, CellROX Deep Red Reagent was added at a final concentration of 5 μM to the cells and incubated for 30 minutes at 37° C. Cells were washed three times with PBS, and analyzed by flow cytometry using Cytoflex (Beckman Coulter).

With `COCCOCCOCCN1CCCCC1CCN1c2ccccc2Sc2ccc(SC)cc21` (stereo not shown) [TDZ2] the “mechanism of Ca2+ influx” value (SHI-1 cells) was “same mechanism of Ca^2+ influx of TDZ”, the “neuroleptic effects (akinesia, stepping test)” value (“neuroleptic effects” for short) (NSG mice) was “did not induce neuroleptic effects” and the “cytotoxic activity on t(6;11) AML cells (cell death)” value [1] was “maintain cytotoxic activity”.

In the case of `CSc1ccc2c(c1)N(CCC1CCCCN1C)c1ccccc1S2` (racemic) [TDZ, thioridazine], the toxic effects [2] is reported as “no toxic effects”, the “intracellular Ca2+, MFI (Fluo-4 AM, flow cytometry)” value (“intracellular Ca2+, MFI” below) (SHI-1 cells; 0 minutes post treatment) is reported as 68.9 and the “intracellular Ca2+, MFI” value (SHI-1 cells; 1 minute post treatment) is reported as 91.8. The “intracellular Ca2+, MFI” value (SHI-1 cells; 3 minutes post treatment) was 85.8, the “intracellular Ca2+, MFI” value (SHI-1 cells; 5 minutes post treatment) was 85.4 and the “rise in intracellular Ca2+ concentration” value (SHI-1 cells; Ca2+-containing buffer (external Ca2+ present)) was “triggers a rise in intracellular Ca^2+ concentration in the presence”. For the same molecule, the “Ca2+ intake after EGTA pre-treatment” value (SHI-1 cells; SHI-1, EGTA pre-treatment 30' before TDZ) was “Ca^2+ intake was prevented”, the tumor growth [3] was “not affected” and the colony-forming ability [4] was “abrogated colony-forming ability”. For the same molecule, the side effects (NSG mice; 8 mg/kg i.p. starting dose, previously tested) was “free of side effects”, the “neuroleptic effects” value (NSG mice) was “provokes severe central side effects” and the “apoptosis and cell death” value [5] was “almost no effects”. The “progression of tumor growth” value (SHI-1 xenografted mice) was “significantly reduced the progression of tumor growth”, the “apoptotic and dead cells” value ([1]; SHI-1, 24 h of treatment) was 60.8% and the “apoptotic and dead cells” value ([1]; SHI-1, 48 h of treatment) was 84.3%. The “apoptosis level after MLL-AF6 silencing” value ([1]; SHI-1, treatment 16 h after MLL-AF6 silencing, 8, 24 and 30 h after treatment) was “significant rescue of apoptosis level”, the “cytosolic Ca2+ influx” value (t(6;11) primary cells) was “increased cytosolic Ca^2+ influx” and the apoptosis [6] was “induced apoptosis selectively”. The “mitochondrial depolarization (TMRE)” value (t(6;11) SHI-1 cells [7]) was “mitochondrial depolarization”, the colony-forming ability (t(6;11) SHI-1 cells [8]) was “abrogated colony-forming ability” and the clonogenic potential [9] was “did not decrease the clonogenic potential”. For the same molecule, the “reactive oxygen species (ROS)” value (t(6;11) SHI-1 cells [10]) was “highly increased”.

With `CSc1ccc2c(c1)N(CCC1CCCCN1CCOCCOCCN)c1ccccc1S2` (stereo not shown) [TDZ6] the “mechanism of Ca2+ influx” value (SHI-1 cells) was “same mechanism of Ca^2+ influx of TDZ”, the “neuroleptic effects” value (NSG mice) was “did not induce neuroleptic effects” and the “cytotoxic activity on t(6;11) AML cells (cell death)” value [1] was “maintain cytotoxic activity”.
